Several values for one entry are separate records, joined by “and”; a condition that tells them apart may be missing. Equal values may be shown once.
Key:
β-secretase(BACE) [1] = target: T1, β-secretase(BACE) (Homo sapiens, UniProt P56817); assay: BACE Assay-2 (FS1 substrate, IC50 and Ki); assay type: biochemical; conditions: procedure of Example 159, FS1 substrate; read-out: Ki μM (159)
T1 construct: purchased Panvera
Method: The FS1-substrate stock solution was prepared in DMSO as a 10 mg/mL solution. The FS1-substrate working solution was prepared by diluting the 10 mg/mL stock solution with substrate assay buffer to a final concentration of 300 μg/mL. The β-secretase (BACE) working solution was prepared by diluting a 0.83 mg/mL BACE stock solution with enzyme assay buffer to a final concentration of 4 μg/mL.
Test compounds were dissolved in DMSO at 10 mM.
The procedure for this assay was as follows: 15 μL of BACE working solution was pipetted into each well of a 96-well plate. To each well was then pipetted 2 μL of test compound at the selected concentration. Test compound and BACE were then mixed with a pipettor and incubated for 20 min at room temperature. To each well was then added 10 μL of the FS1 substrate working solution.
The procedure for the positive control was as follows: 15 μL of BACE working solution was pipetted into each well to be used as a positive control. To each well was then pipetted 2 μL of vehicle. Vehicle and BACE were then mixed with a pipettor and incubated for 20 min at room temperature. To each well was then added 10 μL of the FS1 substrate working solution.
For test compounds, measured at multiple concentrations, the measured T0 and T60 values were used to calculate an IC50 value using Graphpad Software (or PIR). For test compounds, Ki inhibition was determined as follows: For each compound concentration and positive control, rate of cleavage of substrate (Vi, where i=compound concentration in μM) was determined as Δ Fluorescence/Δ time (min). Cleavage rates (Vi) were plotted as a function of inhibitor concentration in μM [I]. The Ki was then determined by fitting the following equation to the graph of [I] vs Vi Y=aVmax/(50+24*(1+X/Ki)),

β-secretase(BACE) [2] = target: T1, β-secretase(BACE); assay: BACE FS1% Inhibition Assay; assay type: biochemical; conditions: FS1 substrate; for inhibition at 0.3 µM: read-out: % Inhibition (FS) 0.3 μM; for inhibition at 1 µM: read-out: % Inhibition (FS) 1 μM; for inhibition at 3 µM: read-out: % Inhibition (FS) 3 μM; for inhibition at 10 µM: 10 μM test compound, read-out: % Inhibition (FS) 10 μM
Method in brief: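 Human BACE (4 μg/mL working solution) preincubated 20 min at room temperature with compound, then FS1 substrate (300 μg/mL working solution) added and incubated 1 h at room temperature. Percent inhibition calculated at each compound concentration against blank and vehicle controls.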

T1 sequence (P56817 46-501): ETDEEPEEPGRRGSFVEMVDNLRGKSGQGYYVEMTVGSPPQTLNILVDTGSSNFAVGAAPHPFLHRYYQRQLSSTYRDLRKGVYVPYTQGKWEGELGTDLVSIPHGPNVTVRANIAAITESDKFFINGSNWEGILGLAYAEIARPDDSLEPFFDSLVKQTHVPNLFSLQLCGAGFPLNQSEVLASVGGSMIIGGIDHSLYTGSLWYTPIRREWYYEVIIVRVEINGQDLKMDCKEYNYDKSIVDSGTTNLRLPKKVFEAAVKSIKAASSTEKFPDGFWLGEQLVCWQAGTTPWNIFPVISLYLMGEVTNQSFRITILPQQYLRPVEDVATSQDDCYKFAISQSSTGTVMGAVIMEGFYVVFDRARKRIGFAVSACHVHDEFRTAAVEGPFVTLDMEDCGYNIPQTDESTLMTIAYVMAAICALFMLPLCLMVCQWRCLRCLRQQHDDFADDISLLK

Compound | Ki (β-secretase(BACE) [1]) | inhibition at 0.3 µM (β-secretase(BACE) [2]; 0.3 μM test compound) | inhibition at 1 µM (β-secretase(BACE) [2]; 1 μM test compound) | inhibition at 3 µM (β-secretase(BACE) [2]; 3 μM test compound) | inhibition at 10 µM (β-secretase(BACE) [2]) | % Inhibition (FS) 0.3 μM (β-secretase(BACE) [2]; 0.3 μM test compound) | % Inhibition (FS) 1 μM (β-secretase(BACE) [2]; 1 μM test compound, 1 µM) | % Inhibition (FS) 3 μM (β-secretase(BACE) [2]; 3 μM test compound, 3 µM)
COc1ccccc1-c1ccc2c(c1)CN(C(CCC(=O)N(C)C1CCCCC1)C1CCCCC1)C(N)=N2 (single isomer, unassigned) [Compound 530] | 0.13 µM | < 30% | 80% | 118% |  |  |  | 
CCCS(=O)(=O)NCCN1Cc2cc(Oc3ccccc3)ccc2N=C1N [Compound 134] | 0.37 µM |  |  | 70% | 104% |  |  | 
CN(C(=O)c1cccc(C(c2ccccc2)N2Cc3cc(Oc4ccccc4)ccc3N=C2N)c1)C1CCCCC1 (centres unmarked) [Compound 136] | 0.5 µM |  |  | 85% | 133% |  |  | 
CCCC(CCCC(=O)NC1CCCCCC1)N1Cc2cc(Oc3ccccc3)ccc2N=C1N (centres unmarked) [Compound 137] | 0.73 µM |  |  | 82% | 107% |  |  | 
NC1=Nc2ccc(Oc3ccccc3)cc2CN1CCNC(=O)CCC1CCCC1 [Compound 140] | 0.32 µM |  |  | 79% | 101% |  |  | 
CCCCCC(CCC(=O)N(C)C1CCCCC1)N1Cc2cc(Oc3ccccc3)ccc2N=C1N (centres unmarked) [Compound 148] | 0.25 µM | 35% | 62% | 114% |  |  |  | 
CCCCCC(CCC(=O)NC1CCCCC1)N1Cc2cc(Oc3ccccc3)ccc2N=C1N (centres unmarked) [Compound 149] | 0.21 µM | 32% | 71% | 111% |  |  |  | 
CN(C(=O)CCC(c1ccccc1)N1Cc2cc(Oc3ccccc3)ccc2N=C1N)C1CCCCC1 (centres unmarked) [Compound 151] | 0.23 µM |  |  | 79% | 104% |  |  | 
CN(C(=O)CCCC(c1ccccc1)N1Cc2cc(Oc3ccccc3)ccc2N=C1N)C1CCCCC1 (centres unmarked) [Compound 152] | 0.3 µM |  |  | 85% | 107% |  |  | 
CN(C(=O)c1cccc(CN2Cc3cc(-c4ccccc4S(=O)(=O)NC(C)(C)C)ccc3N=C2N)c1)C1CCCCC1 [Compound 158] | 0.81 µM | < 30% |  | 60% |  | <30% | <30% and 53% | 79%
CN(C(=O)c1cccc(CN2Cc3cc(-c4cccnc4)ccc3N=C2N)c1)C1CCCCC1 [Compound 170] | 0.77 µM | < 30% | 49% | 67% |  |  |  | 
CN(C(=O)c1cccc(CN2Cc3cc(-c4ccccc4C(N)=O)ccc3N=C2N)c1)C1CCCCC1 [Compound 173] | 0.47 µM | < 30% | 53% | 76% |  |  |  | 
Cc1cccc(-c2ccc3c(c2)CN(Cc2cccc(C(=O)N(C)C4CCCCC4)c2)C(N)=N3)c1 [Compound 176] | 0.2 µM | 66% | 97% | 111% |  |  |  | 
CN(C(=O)CCCN1Cc2cc(Oc3ccccc3)ccc2N=C1N)C1CCCCC1 [Compound 177] | 0.56 µM | < 30% | 80% | 102% |  |  |  | 
CC(C)N(C(=O)CCN1Cc2cc(Oc3ccccc3)ccc2N=C1N)C1CCCCC1 [Compound 179] | 1.04 µM | < 30% | 54% | 85% |  |  |  | 
CC(C)N(C(=O)c1cccc(CN2Cc3cc(Oc4ccccc4)ccc3N=C2N)c1)C1CCCCC1 [Compound 192] | 0.22 µM | 38% | 92% | 110% |  |  |  | 
CC(C)C(CC(=O)N(C)C1CCCCC1)N1Cc2cc(Oc3ccccc3)ccc2N=C1N (centres unmarked) [Compound 201] | 0.4 µM | < 30% | < 30% | 66% |  |  |  | 
NC1=Nc2ccc(Oc3ccccc3)cc2CN1CCNC(=O)Nc1ccccc1 [Compound 205] | 0.32 µM | < 30% | 47% | 90% |  |  |  | 

Source: patent US8383637B2, “2-amino-quinazoline derivatives useful as inhibitors of β-secretase (BACE)” (Jansssen Pharmaceutica N.V., priority 2004, dated 2013)
